Data reported in the NIST ThermoML archive (doi:10.1016/j.tca.2013.03.013).
± gives the expanded uncertainty stated by the source.

Details: Crystal

- Normal melting temperature (DTA): 261.4 ± 0.7 °C
- Normal melting temperature (visual observation): 262.00 ± 0.5 °C
SMILES: CC1(C)O[C@@H]2C[C@H]3[C@@H]4C[C@H](F)C5=CC(=O)C=C[C@]5(C)[C@@]4(F)[C@@H](O)C[C@]3(C)[C@]2(C(=O)CO)O1 [fluocinolone acetonide]
